{
  "source": "ChEMBL document CHEMBL4000202",
  "about": "“Identification of a diverse synthetic abietane diterpenoid library for anticancer activity” (Bioorg Med Chem Lett, 2017)",
  "key": {"[1]": {"tested_on": "SK-OV-3", "experiment": "Cytotoxic activity against human SKOV3 cells assessed as reduction in cell viability after 72 hrs by SRB assay", "assay_type": "functional, cell-based", "details": "SK-OV-3, 72 h"}, "[2]": {"tested_on": "HCT-116", "experiment": "Cytotoxic activity against human HCT116 cells assessed as reduction in cell viability", "assay_type": "functional, cell-based"}, "[3]": {"tested_on": "A549", "experiment": "Induction of apoptosis in human A549 cells assessed as increase in cleaved PARP level after 36 hrs by Western blot method", "assay_type": "functional, cell-based"}, "[4]": {"tested_on": "A549", "experiment": "Cytotoxic activity against human A549 cells assessed as reduction in cell viability after 72 hrs by SRB assay", "assay_type": "functional, cell-based", "details": "A549, 72 h"}, "[5]": {"tested_on": "A549", "experiment": "Induction of apoptosis in human A549 cells assessed as reduction in mitochondrial membrane potential at 5 uM after 24 hrs using JC-1 dye based spectrofluorometry", "assay_type": "functional, cell-based"}, "[6]": {"tested_on": "A549", "experiment": "Induction of apoptosis in human A549 cells assessed as early apoptotic cells at 5 uM after 36 hrs by Annexin V/propidium iodide based flow cytometric analysis (reference value: 0.5%)", "assay_type": "functional"}, "[7]": {"tested_on": "A549", "experiment": "Potency index, ratio of 5-FU IC50 to compound IC50 for human A549 cells", "assay_type": "functional"}, "[8]": {"tested_on": "A549", "experiment": "Effect on tubulin in human A549 cells at 1 to 100 uM after 18 hrs", "assay_type": "cell-based"}, "[9]": {"tested_on": "A549", "experiment": "Induction of apoptosis in human A549 cells assessed as late apoptotic cells at 5 uM after 36 hrs by Annexin V/propidium iodide based flow cytometric analysis (reference value: 2.3%)", "assay_type": "functional"}, "[10]": {"tested_on": "A549", "experiment": "Induction of apoptosis in human A549 cells assessed as genomic DNA fragmentation at 5 uM after 24 hrs by FITC/DAPI staining based TUNEL assay", "assay_type": "functional, cell-based"}, "[11]": {"tested_on": "MCF7", "experiment": "Cytotoxic activity against human MCF7 cells assessed as reduction in cell viability", "assay_type": "functional, cell-based"}, "[12]": {"tested_on": "SK-BR-3", "experiment": "Cytotoxic activity against human SKBR3 cells assessed as reduction in cell viability", "assay_type": "functional, cell-based"}, "[13]": {"tested_on": "MDA-MB-231", "experiment": "Cytotoxic activity against human MDA-MB-231 cells assessed as reduction in cell viability", "assay_type": "functional, cell-based"}, "[14]": {"tested_on": "A549", "experiment": "Induction of apoptosis in human A549 cells assessed as increase in Bax level after 36 hrs by Western blot method", "assay_type": "functional, cell-based"}, "[15]": {"tested_on": "A549", "experiment": "Induction of apoptosis in human A549 cells assessed as necrotic cells at 5 uM after 36 hrs by Annexin V/propidium iodide based flow cytometric analysis (reference value: 0.2%)", "assay_type": "functional"}, "[16]": {"tested_on": "L02", "experiment": "Cytotoxic activity against human HL7702 cells", "assay_type": "cell-based"}, "[17]": {"tested_on": "A549", "experiment": "Induction of apoptosis in human A549 cells assessed as increase in cytochrome c level after 36 hrs by Western blot method", "assay_type": "functional, cell-based"}, "[18]": {"tested_on": "A549", "experiment": "Induction of apoptosis in human A549 cells assessed as increase in cleaved caspase-3 level after 36 hrs by Western blot method", "assay_type": "functional, cell-based"}, "[19]": {"tested_on": "PC-3", "experiment": "Cytotoxic activity against human PC3 cells assessed as reduction in cell viability after 72 hrs by SRB assay", "assay_type": "functional, cell-based", "details": "PC-3, 72 h"}, "[20]": {"tested_on": "LNCaP", "experiment": "Cytotoxic activity against human LNCAP cells assessed as reduction in cell viability", "assay_type": "functional, cell-based"}, "[21]": {"tested_on": "A549", "experiment": "Induction of apoptosis in human A549 cells assessed as ROS generation at 1 to 100 uM after 18 hrs", "assay_type": "functional, cell-based"}, "[22]": {"tested_on": "HFF", "experiment": "Cytotoxic activity against HFF cells assessed as reduction in cell viability", "assay_type": "cell-based", "details": "Homo sapiens"}, "[23]": {"tested_on": "A549", "experiment": "Induction of apoptosis in human A549 cells assessed as decrease in Bcl-2 level after 36 hrs by Western blot method", "assay_type": "functional, cell-based"}, "[24]": {"tested_on": "A549", "experiment": "Induction of apoptosis in human A549 cells assessed as decrease in PARP level after 36 hrs by Western blot method", "assay_type": "functional, cell-based"}},
  "note": "The source made the active and inactive calls. The calls are words filed in the database; no cut-off is given here.",
  "data": [
    {"smiles": "CCOCO[C@]12CCC[C@]3(CO1)c1ccc(C(C)C)c(OC)c1C(=O)C[C@@H]23", "values": [
      {"measurement": "IC50", "setting": "[1]", "value": 1.57, "unit": "µM"},
      {"measurement": "IC50", "setting": "[2]", "value": "1.1 to 4.5", "unit": "µM"},
      {"measurement": "Activity", "setting": "[3]", "value": "Dose-dependent effect"},
      {"measurement": "IC50", "setting": "[4]", "value": 1.32, "unit": "µM"},
      {"measurement": "Activity", "setting": "[5]", "value": "Active"},
      {"measurement": "Activity", "setting": "[6]", "value": 1.3, "unit": "%"},
      {"measurement": "Ratio IC50", "setting": "[7]", "value": 24},
      {"measurement": "Activity", "setting": "[8]", "value": "inactive"},
      {"measurement": "Activity", "setting": "[9]", "value": 15.8, "unit": "%"},
      {"measurement": "Activity", "setting": "[10]", "value": "Active"},
      {"measurement": "IC50", "setting": "[11]", "value": "1.1 to 4.5", "unit": "µM"},
      {"measurement": "IC50", "setting": "[12]", "value": "1.1 to 4.5", "unit": "µM"},
      {"measurement": "IC50", "setting": "[13]", "value": "1.1 to 4.5", "unit": "µM"},
      {"measurement": "Activity", "setting": "[14]", "value": "Dose-dependent effect"},
      {"measurement": "Activity", "setting": "[15]", "value": 1.3, "unit": "%"},
      {"measurement": "IC50", "setting": "[16]", "value": "16.1 to 22.4", "unit": "µM"},
      {"measurement": "Activity", "setting": "[17]", "value": "Dose-dependent effect"},
      {"measurement": "Activity", "setting": "[18]", "value": "Dose-dependent effect"},
      {"measurement": "IC50", "setting": "[19]", "value": 2.58, "unit": "µM"},
      {"measurement": "IC50", "setting": "[20]", "value": "1.1 to 4.5", "unit": "µM"},
      {"measurement": "Activity", "setting": "[21]", "value": "inactive"},
      {"measurement": "IC50", "setting": "[22]", "value": "16.1 to 22.4", "unit": "µM"},
      {"measurement": "Activity", "setting": "[23]", "value": "Active"},
      {"measurement": "Activity", "setting": "[24]", "value": "Active"}
    ]}
  ]
}
